One test deals with Human rhinovirus 1B. Nature of the test: Picornavirus assay (CPE, CellTiter-Glo, HeLa-OHIO cells). In kind it is cell-based. The following applies: Rhinovirus A, 96 h. (Cellular ATP, detected with luciferase, serves as a proxy for viable cell number.)
Test [1] concerns the target human rhinovirus 16 polymerase (HRV16pol) (Human rhinovirus 16, UniProt Q82122). The experiment in a line: biochemical.
In the next test the target is NS5B570-Con1 (Delta-21) (Hepatitis C virus genotype 1b, UniProt Q9WMX2). Nature of the test: biochemical. On the set-up: species or system HCV.
[2] abbreviates: Human rhinovirus 1B, HeLa-OHIO cells, 4 d at 33° C., read-out: EC50.
The mark [3] stands for this setting: HRV16pol, 2.5 h at 30° C., mean of several independent experiments, read-out: IC50.

What is called EC50 is the concentration giving half of the maximal effect. A word on the IC50: it is the concentration that inhibits the measured activity by half.

Read-outs that look alike come from different tables or passages of the source. A value given as a limit tells only on which side of the number the result lay.

human rhinovirus 16 polymerase (HRV16pol), sequence (Q82122 1694-2153 limits assumed): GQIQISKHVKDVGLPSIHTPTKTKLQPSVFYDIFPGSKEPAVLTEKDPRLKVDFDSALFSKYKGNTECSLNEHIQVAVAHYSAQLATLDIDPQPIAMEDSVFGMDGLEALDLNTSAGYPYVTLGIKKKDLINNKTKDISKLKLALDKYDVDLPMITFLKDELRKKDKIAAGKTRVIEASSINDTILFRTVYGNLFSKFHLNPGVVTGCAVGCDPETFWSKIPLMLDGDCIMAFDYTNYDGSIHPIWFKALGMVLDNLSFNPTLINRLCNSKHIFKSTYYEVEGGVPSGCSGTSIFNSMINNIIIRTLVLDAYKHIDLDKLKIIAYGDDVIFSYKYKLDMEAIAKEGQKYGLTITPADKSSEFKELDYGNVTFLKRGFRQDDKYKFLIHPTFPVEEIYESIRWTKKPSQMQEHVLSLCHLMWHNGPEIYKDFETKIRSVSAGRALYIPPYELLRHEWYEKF

In the case of `CC[C@]1(CO)O[C@@H](n2ccc(N)nc2=O)C(F)(F)[C@@H]1O` [Compound 1], in the test on Human rhinovirus 1B (setting [2]), the EC50 was in the range of 1 to 10 µM.

Regarding `CC(C)OC(=O)[C@H](C)NP(=O)(OC[C@@]1(F)O[C@@H](n2ccc(=O)[nH]c2=O)[C@](C)(O)[C@@H]1O)Oc1ccccc1` (stereo partly shown) [Compound 5], the EC50 in the test with Human rhinovirus 1B was 10 to 100 µM.

Turning to `C[C@H](NP(=O)(OC[C@@]1(F)O[C@@H](n2cnc3c(=O)[nH]c(N)nc32)[C@](C)(O)[C@@H]1O)Oc1ccccc1)C(=O)OC1CCCCC1` (stereo partly shown) [Compound 7], the concentration for a half-maximal effect (EC50) in the test on Human rhinovirus 1B lay within 1 to 10 µM.

In the test with Human rhinovirus 1B, `C[C@H](NP(=O)(OC[C@@]1(F)O[C@@H](n2ccc(=O)[nH]c2=O)[C@](C)(O)[C@@H]1O)Oc1ccccc1)C(=O)OC1CCCCC1` (stereo partly shown) [Compound 8] gave an EC50 of 1 to 10 µM.

For the compound `CCOc1nc(NC=O)nc2c1ncn2[C@@H]1O[C@](F)(COP(=O)(N[C@@H](C)C(=O)OC2CCCCC2)Oc2ccccc2)[C@@H](F)[C@@]1(C)O` (stereo partly shown) [Compound 17], in the test on Human rhinovirus 1B, the EC50 was 10 to 100 µM.

As to `C[C@]1(F)[C@H](n2ccc(N)nc2=O)O[C@](F)(CO)[C@H]1O` [Compound 18], the concentration giving a half-maximal response (EC50) with Human rhinovirus 1B (setting [2]) was in the range of 10 to 100 µM.

Turning to `CCOc1nc(N)nc2c1ncn2[C@@H]1O[C@](F)(COP(=O)(N[C@@H](C)C(=O)OCC(C)(C)C)Oc2ccccc2)[C@@H](O)[C@@]1(C)O` (stereo partly shown) [Compound 33], in the test with Human rhinovirus 1B, the EC50 is under 1 µM.

For the compound `C[C@@]1(O)[C@H](O)[C@](CO)(CF)O[C@H]1n1ccc(N)nc1=O` [Compound 40], the concentration giving a half-maximal response (EC50) with Human rhinovirus 1B (setting [2]) lay in the range of 10 to 100 µM.

Consider `COCC(COC)OC(=O)OCOP(=O)(OCOC(=O)OC(COC)COC)OC[C@@]1(CF)O[C@@H](n2ccc(=O)[nH]c2=O)[C@](C)(O)[C@@H]1O` [Compound 66], for which the EC50 in the test with Human rhinovirus 1B (setting [2]) was in the range of 10 to 100 µM.

Take `Nc1ccn([C@@H]2O[C@@](CO)(CCl)[C@@H](O)C2(F)F)c(=O)n1` [Compound 69]: the EC50 in the test with Human rhinovirus 1B (setting [2]) lay in the range of 1 to 10 µM.

Consider `CCOc1nc(N)nc2c1ncn2[C@@H]1O[C@]2(F)CO[P@@](=O)(OC(C)C)O[C@H]2[C@@]1(C)F` [Compound 87], for which the EC50 in the test on Human rhinovirus 1B (setting [2]) is 1 to 10 µM.

On to `C[C@@]1(O)[C@H](O)[C@@](CF)(CO[P@](O)(=S)OP(=O)(O)OP(=O)(O)O)O[C@H]1n1ccc(=O)[nH]c1=O` [Compound 97], for which the concentration for half-maximal inhibition (IC50) in test [1] is under 10 µM.

`C[C@@]1(O)[C@H](O)[C@@](CF)(CO[P@@](O)(=S)OP(=O)(O)OP(=O)(O)O)O[C@H]1n1ccc(=O)[nH]c1=O` [Compound 98]: the IC50 on NS5B570-Con1 (Delta-21) was in the range of 10 to 100 µM.

Take `CC(C)OC(=O)[C@H](C)NP(=O)(OC[C@@]1(F)O[C@@H](n2ccc(=O)[nH]c2=O)[C@](C)(O)[C@@H]1O)Oc1cccc2ccccc12` (stereo partly shown) [Compound 150]: the EC50 in the test with Human rhinovirus 1B lay in the range of 1 to 10 µM.

As to `CC(C)(C)C(=O)OCOP(=O)(OCOC(=O)C(C)(C)C)OC[C@@]1(F)O[C@@H](n2ccc(=O)[nH]c2=O)[C@](C)(O)[C@@H]1O` [Compound 151], in the test with Human rhinovirus 1B (setting [2]), the EC50 is under 1 µM.

As for `CC(C)OC(=O)[C@H](C)NP(=O)(OC[C@@]1(F)O[C@@H](n2ccc(=O)[nH]c2=O)[C@](C)(O)[C@@H]1O)Oc1ccc(Cl)cc1` (stereo partly shown) [Compound 152], the EC50 in the test on Human rhinovirus 1B lay within 1 to 10 µM.

As for `CC(=O)O[C@H]1[C@@](C)(O)[C@H](n2ccc(=O)[nH]c2=O)O[C@]1(F)COP(=O)(N[C@@H](C)C(=O)OC(C)C)Oc1ccc(Cl)cc1` (stereo partly shown) [Compound 153], the EC50 in the test with Human rhinovirus 1B lay within 1 to 10 µM.

For the compound `CC(C)OC(=O)OCOP1(=O)OC[C@@]2(CF)O[C@@H](n3ccc(=O)[nH]c3=O)[C@](C)(O)[C@@H]2O1` (stereo partly shown) [Compound 158], the EC50 with Human rhinovirus 1B (setting [2]) was 10 to 100 µM.

With `CC(C)OC(=O)OC(C)OP(=O)(OC[C@@]1(CF)O[C@@H](n2ccc(=O)[nH]c2=O)[C@](C)(O)[C@@H]1O)OC(C)OC(=O)OC(C)C` (stereo partly shown) [Compound 159], the EC50 in the test on Human rhinovirus 1B (setting [2]) is 10 to 100 µM.

As for `[N-]=[N+]=NC[C@]1(CO)O[C@@H](n2ccc(N)nc2=O)C(F)(F)[C@@H]1O` [Compound 296], the EC50 with Human rhinovirus 1B (setting [2]) was in the range of 1 to 10 µM.

Turning to `[N-]=[N+]=NC[C@]1(CO)O[C@@H](n2ccc(N)nc2=O)[C@@H](O)[C@@H]1O` [Compound 297], the half-maximal effective concentration (EC50) with Human rhinovirus 1B (setting [2]) is 10 to 100 µM.

Turning to `C[C@]1(O)[C@H](n2ccc(=O)[nH]c2=O)O[C@](C)(COP(=O)(O)OP(=O)(O)OP(=O)(O)O)[C@H]1O` [compound 58], the 50% inhibitory concentration (IC50) in test [1] (setting [3]) was under 10 µM.

Turning to `C#C[C@]1(O)[C@H](n2cnc3c(N)ncnc32)O[C@](C)(COP(=O)(O)OP(=O)(O)OP(=O)(O)O)[C@H]1O` [compound 59], the IC50 against NS5B570-Con1 (Delta-21) was 1 to 10 µM; in test [1] (setting [3]), under 100 µM.

Regarding `C#C[C@@]1(O)[C@H](O)[C@@](CF)(COP(=O)(O)OP(=O)(O)OP(=O)(O)O)O[C@H]1n1ccc(=O)[nH]c1=O` [compound 61], the IC50 (against NS5B570-Con1 (Delta-21); in test [1] (setting [3])) was under 1 µM each time.

In the case of `C=C[C@]1(COP(=O)(O)OP(=O)(O)OP(=O)(O)O)O[C@@H](n2ccc(=O)[nH]c2=O)C(F)(F)[C@@H]1O` [compound 72], the IC50 at NS5B570-Con1 (Delta-21) is 10 to 100 µM; in test [1] (setting [3]), under 100 µM.

For `O=c1ccn([C@@H]2O[C@](CCl)(COP(=O)(O)OP(=O)(O)OP(=O)(O)O)[C@@H](O)C2(F)F)c(=O)[nH]1` [compound 73], the IC50 against NS5B570-Con1 (Delta-21) is 10 to 100 µM; in test [1] (setting [3]) it was under 10 µM.

Turning to `[N-]=[N+]=NC[C@]1(COP(=O)(O)OP(=O)(O)OP(=O)(O)O)O[C@@H](n2ccc(N)nc2=O)[C@H](F)[C@@H]1O` [compound 107], the IC50 in test [1] (setting [3]) was under 1 µM.

For `Nc1ccn([C@@H]2O[C@@](COP(=O)(O)OP(=O)(O)OP(=O)(O)O)(C(F)F)[C@H](O)[C@@H]2F)c(=O)n1` [compound 168], the concentration for half-maximal inhibition (IC50) in test [1] (setting [3]) was under 10 µM.

`C#C[C@@]1(O)[C@H](O)[C@@H](COP(=O)(O)OP(=O)(O)OP(=O)(O)O)O[C@H]1n1cnc2c(N)ncnc21` [compound 202]: the IC50 in test [1] (setting [3]) was under 1 µM.

Compound `C#C[C@@]1(O)[C@H](O)[C@@H](COP(=O)(O)OP(=O)(O)OP(=O)(O)O)O[C@H]1n1cnc2c(=O)[nH]c(N)nc21` [compound 203] registered an IC50 against NS5B570-Con1 (Delta-21) of under 1 µM.

On NS5B570-Con1 (Delta-21), `C[C@@]1(Cl)[C@H](O)[C@@](CF)(COP(=O)(O)OP(=O)(O)OP(=O)(O)O)O[C@H]1n1ccc(=O)[nH]c1=O` [compound 210] gave an IC50 of 1 to 10 µM.

For `C#C[C@]1(F)[C@H](n2ccc(=O)[nH]c2=O)O[C@](F)(COP(=O)(O)OP(=O)(O)OP(=O)(O)O)[C@H]1O` [compound 215], the IC50 in test [1] (setting [3]) was under 10 µM.

Turning to `N#C[C@@]1(n2ccc(=O)[nH]c2=O)O[C@](CF)(COP(=O)(O)OP(=O)(O)OP(=O)(O)O)[C@@H](O)[C@H]1O` [compound 237], the IC50 in test [1] (setting [3]) is under 1 µM.

Turning to `N#C[C@@]1(n2ccc(N)nc2=O)O[C@](CF)(COP(=O)(O)OP(=O)(O)OP(=O)(O)O)[C@@H](O)[C@H]1O` [compound 238], the IC50 in test [1] (setting [3]) is under 10 µM.

For the compound `C#C[C@@]1(n2cnc3c(=O)[nH]c(N)nc32)O[C@H](COP(=O)(O)OP(=O)(O)OP(=O)(O)O)[C@@H](O)[C@H]1F` [compound 242], the concentration for half-maximal inhibition (IC50) in test [1] (setting [3]) is under 10 µM.

For the compound `C=C[C@@]1(O)[C@H](O)[C@@](CF)(COP(=O)(O)OP(=O)(O)OP(=O)(O)O)O[C@H]1n1ccc(=O)[nH]c1=O` [compound 251], the IC50 in test [1] (setting [3]) is under 10 µM.

On to `O=c1ccn([C@@H]2O[C@](F)(COP(=O)(O)OP(=O)(O)OP(=O)(O)O)[C@@H](O)[C@]2(O)CF)c(=O)[nH]1` [compound 257], for which, in test [1] (setting [3]), the IC50 is under 10 µM.

In the case of `[N-]=[N+]=NC[C@]1(COP(=O)(O)OP(=O)(O)OP(=O)(O)O)O[C@@H](n2ccc(N)nc2=O)C(F)(F)[C@@H]1O` [compound 274], the IC50 in test [1] (setting [3]) was under 10 µM.

For `[N-]=[N+]=NC[C@]1(COP(=O)(O)OP(=O)(O)OP(=O)(O)O)O[C@@H](n2ccc(N)nc2=O)[C@H](O)[C@@H]1O` [compound 275], in test [1] (setting [3]), the IC50 is under 10 µM.

Source of the values: US10370401B2, “Substituted nucleosides, nucleotides and analogs thereof” (Alios BioPharma, Inc., priority 2013, dated 2019).
